Each structure is given as a SMILES string.

We go through 13 compounds from patent publication US8258158B2 (Hoffmann-La Roche Inc., priority 2009, dated 2012).

In the assay the target is T1, human HSL (Homo sapiens, UniProt Q05469).
T1 construct: overlapping PCR to generate a full length human HSL ORF with a 3′-His6 tag; His6 (C); made in house; host or cells: High 5 insect cells (baculovirus, pFast-BAC)
T1 sequence (Q05469 1-1076): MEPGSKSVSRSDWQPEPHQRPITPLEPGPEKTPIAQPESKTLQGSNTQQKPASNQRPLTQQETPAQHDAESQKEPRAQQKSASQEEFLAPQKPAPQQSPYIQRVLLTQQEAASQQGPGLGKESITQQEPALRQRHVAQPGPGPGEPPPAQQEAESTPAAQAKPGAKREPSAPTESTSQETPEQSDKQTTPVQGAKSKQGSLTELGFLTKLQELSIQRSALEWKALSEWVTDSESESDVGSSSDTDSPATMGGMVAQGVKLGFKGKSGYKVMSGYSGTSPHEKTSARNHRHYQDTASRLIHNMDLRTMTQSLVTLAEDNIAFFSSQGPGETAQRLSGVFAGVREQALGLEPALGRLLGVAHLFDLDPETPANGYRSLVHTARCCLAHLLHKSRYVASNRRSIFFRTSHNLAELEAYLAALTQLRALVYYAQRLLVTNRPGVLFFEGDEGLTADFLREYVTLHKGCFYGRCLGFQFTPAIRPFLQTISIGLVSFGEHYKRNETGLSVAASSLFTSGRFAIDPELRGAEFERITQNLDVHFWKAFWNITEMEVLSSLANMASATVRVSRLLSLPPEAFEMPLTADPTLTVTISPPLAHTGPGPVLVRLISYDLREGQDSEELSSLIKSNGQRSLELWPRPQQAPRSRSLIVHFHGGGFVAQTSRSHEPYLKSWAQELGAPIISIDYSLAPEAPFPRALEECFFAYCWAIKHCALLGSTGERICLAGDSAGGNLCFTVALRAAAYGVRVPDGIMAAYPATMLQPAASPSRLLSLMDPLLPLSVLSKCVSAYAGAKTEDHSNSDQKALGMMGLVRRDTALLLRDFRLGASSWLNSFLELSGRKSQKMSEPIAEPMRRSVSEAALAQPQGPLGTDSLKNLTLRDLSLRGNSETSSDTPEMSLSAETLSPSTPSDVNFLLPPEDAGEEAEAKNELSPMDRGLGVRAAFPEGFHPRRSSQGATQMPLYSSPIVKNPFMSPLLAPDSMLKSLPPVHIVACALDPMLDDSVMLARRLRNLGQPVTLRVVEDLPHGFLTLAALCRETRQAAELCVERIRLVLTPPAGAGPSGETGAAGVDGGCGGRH
Description: Human hormone-sensitive lipase (HSL) enzyme inhibition assay (colorimetric, DMPT substrate). Format: biochemical. The settings on record: human full length HSL-His6; 2,3-dimercapto-1-propanol tributyrate substrate; 37° C., 20 minutes; read-out: HSL hum IC50. The method, boiled down: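 Full-length human HSL with C-terminal His6, expressed in baculovirus/High 5 cells and Ni-NTA purified, was added from a 15 µg/ml solution to 1.5 mM DMPT in 100 mM MOPS pH 7.2, 0.2 mg/ml fatty acid-free BSA. After 20 min at 37 °C, DTNB with SDS/Triton X-100 was added, 15 min RT, and A405 read.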

With `CCN(C(=O)C1CCN(S(=O)(=O)c2ccc(C)cc2)CC1)c1ccc(OC(C)C(F)(F)F)cc1` (racemic) [Example 4, (rac)-1-(Toluene-4-sulfonyl)-piperidine-4-carboxylic acid ethyl-[4-(2,2,2-trifluoro-1-methyl-ethoxy)-phenyl]-amide], the IC50 (usually the concentration at which inhibition is half-maximal) is 3000 nM.
In the case of `CC(C)c1ccc(NC(=O)C2CCN(C(=O)CC(C)(C)C)CC2)cc1` [Example 10] it was 200 nM; in that of `CC(Oc1ccc(NC(=O)C2CCN(S(=O)(=O)c3ccccc3Cl)CC2)cc1)C(F)(F)F` (racemic) [Example 40, (rac)-1-(2-Chloro-benzenesulfonyl)-piperidine-4-carboxylic acid [4-(2,2,2-trifluoro-1-methyl-ethoxy)-phenyl]-amide], 70 nM.
To `CC(C)c1ccc(NC(=O)C2CCN(C(=O)CC3CC3)CC2)cc1` [Example 8, 1-(2-Cyclopropyl-acetyl)-piperidine-4-carboxylic acid (4-isopropyl-phenyl)-amide] belongs 800 nM; to `Cc1ccc(S(=O)(=O)N2CCC(C(=O)Nc3ccc(OC(C)C4CC4)cc3)CC2)cc1` (racemic) [Example 34, (rac)-1-(Toluene-4-sulfonyl)-piperidine-4-carboxylic acid [4-(1-cyclopropyl-ethoxy)-phenyl]-amide], 90 nM.
`COc1ccc(NC(=O)C2CCN(S(=O)(=O)c3ccccc3)CC2)nn1` [Example 3, 1-Benzenesulfonyl-piperidine-4-carboxylic acid (6-methoxy-pyridazin-3-yl)-amide]: the concentration for half-maximal inhibition (IC50) worked out at 12000 nM.
For `Cc1ccc(S(=O)(=O)N2CCC(CO)(C(=O)Nc3ccc(OC(C)C(F)(F)F)cc3)CC2)cc1` (racemic) [Example 55, (rac)-4-Hydroxymethyl-1-(toluene-4-sulfonyl)-piperidine-4-carboxylic acid [4-(2,2,2-trifluoro-1-methyl-ethoxy)-phenyl]-amide], the IC50 is 1420 nM.
To `Cc1ccc(S(=O)(=O)N2CCC(F)(C(=O)Nc3ccc(OC(C)C)cc3)CC2)cc1` [Example 19, 4-Fluoro-1-(toluene-4-sulfonyl)-piperidine-4-carboxylic acid (4-isopropoxy-phenyl)-amide] belongs 740 nM.
Regarding `COC(COc1ccc(NC(=O)C2CCN(S(=O)(=O)c3ccc(C)cc3)CC2)cc1)C(F)(F)F` (racemic) [Example 53, (rac)-1-(Toluene-4-sulfonyl)-piperidine-4-carboxylic acid [4-(3,3,3-trifluoro-2-methoxy-propoxy)-phenyl]-amide], the half-maximal inhibitory concentration (IC50) was 660 nM.
With `Cc1ccc(S(=O)(=O)N2CCC(C(=O)N(C)c3ccc(OC(C)C(F)(F)F)cc3)CC2)cc1` (racemic) [Example 5, (rac)-1-(Toluene-4-sulfonyl)-piperidine-4-carboxylic acid methyl-[4-(2,2,2-trifluoro-1-methyl-ethoxy)-phenyl]-amide], the IC50 stood at 120 nM.
For the compound `Cc1ccc(S(=O)(=O)N2CCC(F)(C(=O)Nc3ccc(OC(C)C(F)(F)F)cc3)CC2)cc1` (racemic) [Example 32, (rac-4-Fluoro-1-(toluene-4-sulfonyl)-piperidine-4-carboxylic acid [4-(2,2,2-trifluoro-1-methyl-ethoxy)-phenyl]-amide], the IC50 stood at 920 nM.
On to `CC1(C(=O)Nc2ccc(OC(C)(C)C(F)(F)F)cc2)CCN(S(=O)(=O)c2ccccc2)CC1` (racemic) [Example 50, (rac)-1-Benzenesulfonyl-4-methyl-piperidine-4-carboxylic acid [4-(2,2,2-trifluoro-1,1-dimethyl-ethoxy)-phenyl]-amide], for which the IC50 was 810 nM.
As to `Cc1ccc(S(=O)(=O)N2CCC(C(=O)N(C)c3ccc(OC(F)(F)F)cc3)CC2)cc1` [Example 16, 1-(Toluene-4-sulfonyl)-piperidine-4-carboxylic acid methyl-(4-trifluoromethoxy-phenyl)-amide], the half-maximal inhibitory concentration (IC50) is 40 nM.
